Assay [1] deals with Transient receptor potential cation channel subfamily A member 1 (Homo sapiens) (UniProt O75762). The assay is described as follows: Antagonist activity at AITC induced human TRPA1 expressed in HEK293 cells assessed as intracellular calcium level at 10 to 100 uM preincubated for 30 mins followed by AITC stimulation and measured for 30 sec by Fluo-3AM staining based assay. The following applies: filed as antagonist, dose 10-100 µM, time 1830.0 sec. In kind it is cell-based. (A change in cytosolic calcium serves as a functional read-out for many receptors and channels.)

The target is the same in assay [2]. The assay is described as follows: Agonist activity at human TRPA1. Conditions: filed as agonist.
Assay [3] has as its system T47D. The assay is described as follows: Downregulation of TRPA1 protein expression in human T47D cells after 48 hrs. In kind it is functional, cell-based.
In assay [4] the test system is T47D. Put plainly: Inhibition of human T47D spheroid 3D culture growth size at 1 uM incubated for 120 hrs by CellIQ live-cell analysis. Type of assay: functional.
For assay [5], the system named is T47D. Put plainly: Inhibition of human T47D spheroid 3D culture growth size at 10 uM incubated for 120 hrs by CellIQ live-cell analysis. Type of assay: functional.
The test system of assay [6] is T47D. Put plainly: Inhibition of human T47D spheroid 3D culture growth size at 10 to 100 uM incubated for 12 hrs by CellIQ live-cell analysis. Type of assay: functional, cell-based. The following applies: dose 10-100 µM.
Assay [7] deals with T47D. Put plainly: Inhibition of human T47D spheroid 3D culture growth size at 10 uM incubated for 5 days by CellIQ live-cell analysis. In kind it is functional. Conditions: 120 h, time 5 day.
Assay [8] concerns T47D. Put plainly: Inhibition of human T47D spheroid 3D culture growth size at 100 uM incubated for 5 days by CellIQ live-cell analysis. Type of assay: functional. The following applies: 120 h, time 5 day.

Molecules are shown by their SMILES. Active and inactive are the calls of the source. The rule behind the calls is not given here.

The values that follow come from ChEMBL document CHEMBL5579866, “TRPA1 Inhibition Effects by 3-Phenylcoumarin Derivatives” (2024).

Chain of Transient receptor potential cation channel subfamily A member 1 (Homo sapiens) (O75762 whole entry): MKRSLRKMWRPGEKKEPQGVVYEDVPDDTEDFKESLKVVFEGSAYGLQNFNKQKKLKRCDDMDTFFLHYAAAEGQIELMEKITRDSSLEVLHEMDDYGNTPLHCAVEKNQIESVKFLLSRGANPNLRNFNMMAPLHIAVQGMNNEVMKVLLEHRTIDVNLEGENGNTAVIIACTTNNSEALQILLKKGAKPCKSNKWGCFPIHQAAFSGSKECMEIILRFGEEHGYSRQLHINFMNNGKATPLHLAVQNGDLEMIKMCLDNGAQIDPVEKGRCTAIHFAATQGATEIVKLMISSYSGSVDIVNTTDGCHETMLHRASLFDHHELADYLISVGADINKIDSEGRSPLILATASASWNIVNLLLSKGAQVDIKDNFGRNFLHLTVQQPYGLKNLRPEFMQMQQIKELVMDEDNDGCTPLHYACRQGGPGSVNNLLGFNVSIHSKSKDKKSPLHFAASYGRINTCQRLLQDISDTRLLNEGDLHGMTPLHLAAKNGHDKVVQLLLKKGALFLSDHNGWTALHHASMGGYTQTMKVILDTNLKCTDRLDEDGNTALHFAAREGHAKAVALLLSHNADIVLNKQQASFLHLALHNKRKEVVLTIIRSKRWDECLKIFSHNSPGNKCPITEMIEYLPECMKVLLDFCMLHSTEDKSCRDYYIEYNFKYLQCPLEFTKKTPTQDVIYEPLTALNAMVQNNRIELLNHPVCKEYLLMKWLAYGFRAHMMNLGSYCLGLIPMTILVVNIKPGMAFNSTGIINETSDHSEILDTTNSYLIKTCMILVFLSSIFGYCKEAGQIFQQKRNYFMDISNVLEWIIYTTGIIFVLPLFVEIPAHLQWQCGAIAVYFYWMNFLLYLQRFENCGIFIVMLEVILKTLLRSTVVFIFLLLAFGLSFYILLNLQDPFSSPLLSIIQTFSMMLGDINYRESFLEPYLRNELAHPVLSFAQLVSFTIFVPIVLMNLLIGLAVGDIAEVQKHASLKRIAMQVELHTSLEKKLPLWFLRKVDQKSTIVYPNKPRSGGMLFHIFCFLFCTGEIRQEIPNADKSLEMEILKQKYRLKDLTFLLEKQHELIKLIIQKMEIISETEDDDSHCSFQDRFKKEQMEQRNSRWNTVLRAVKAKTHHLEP

For the compound `O=c1oc2cc(O)ccc2cc1-c1cccc(O)c1`, the outcome (in assay [1]; in assay [2]; with T47D [3]) was Active.
For the compound `Oc1ccc(/C=C/c2cc(O)cc(O)c2)cc1`, in the assay with T47D [3], the result was Active.
For `CC(=O)Oc1ccc2cc(-c3ccccc3)c(=O)oc2c1`, the result in assay [1] was Active. In the assay on T47D [3], the result was inactive.
Consider `O=c1oc2ccccc2cc1-c1cccc(O)c1`, for which the result (in assay [2]; in the assay on T47D [3]) was Active.
Regarding `CC(=O)Oc1ccc2cc(-c3cccc(Br)c3)c(=O)oc2c1`, the result in assay [1] was Active. For the same compound, in the assay with T47D [3], the outcome was inactive. In addition, in the assay with T47D [4], the inhibition at 1 µM was 20%. Also, the inhibition at 10 µM is 60% in the assay on T47D [5] and 8% in the assay with T47D [7]. In the assay on T47D [6], the inhibition result is “Active”. The compound further yielded an inhibition at 100 µM in the assay on T47D [8] of 18%.
In the case of `O=c1oc2ccccc2cc1-c1ccc(O)cc1`, the result in assay [1] was Active.

For orientation: inhibition means how much of the control response was suppressed.
